Values of other authors as cited in US20110190220A1, “Use of Defensin Alpha 1 and/or Defensin Alpha 4, as a Marker for Predicting Treatment Response and/or a Relapse in a Patient Suffering form Chronic Myeloid Leukemia” (priority 2008, published 2011).
Counter-ions that a name gives are not always drawn.

Test system: CML patients

For `Cc1ccc(NC(=O)c2ccc(CN3CCN(C)CC3)cc2)cc1Nc1nccc(-c2cccnc2)n1` [Imatinib, Imatinib mesylate], the “complete or nearly complete cytogenetic remission, share of patients” value (CML patients treated in chronic phase) is listed as “up to 80%” and the “CML patients who are or become resistant to treatment” value (CML patients treated with imatinib) is listed as “about 20%”.
